According to patent US20230233569A1 (Revolution Medicines, Inc., priority 2020, published 2023):

Tests used:
NCI-H358 (K-Ras G12C) = assay: CellTiter-Glo cell viability assay, 5-day treatment; assay type: cell-based; settings: Homo sapiens, NCI-H358, 120 h, 5-day treatment; read-out: H358 Cell Viability assay data (K-Ras G12C, IC50)
Outline: (§1)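 Seeded cells received test compound by direct dispensing. On day 5 the plates sat at room temperature approximately 30 minutes, then luminescence was measured. Data were normalized to DMSO and curve-fitted with four parameters.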

Capan-1 (K-Ras G12V) = assay: as above; assay type: cell-based; settings: Homo sapiens, CAPAN-1, 120 h, 5-day treatment; read-out: Capan-1 Cell Viability assay data (K-Ras G12V, IC50)
Outline: as §1

KRAS G13D = KRAS G13D (Homo sapiens, UniProt P01116+P62937, G13D); assay: Disruption of BRAF RBD interaction with Ras (FRET / MOA assay, with Cyclophilin A); assay type: biochemical; settings: KRAS G13D; read-out: KRAS G13D FRET data IC50
KRAS G13D, sequence (P01116 1-169 isoform P01116-2 G13D limits assumed): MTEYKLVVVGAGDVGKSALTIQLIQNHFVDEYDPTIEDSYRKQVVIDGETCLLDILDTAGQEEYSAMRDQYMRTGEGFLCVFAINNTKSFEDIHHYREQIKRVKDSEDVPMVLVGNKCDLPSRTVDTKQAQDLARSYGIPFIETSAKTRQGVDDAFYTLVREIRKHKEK
KRAS G13D, sequence (P62937 whole entry): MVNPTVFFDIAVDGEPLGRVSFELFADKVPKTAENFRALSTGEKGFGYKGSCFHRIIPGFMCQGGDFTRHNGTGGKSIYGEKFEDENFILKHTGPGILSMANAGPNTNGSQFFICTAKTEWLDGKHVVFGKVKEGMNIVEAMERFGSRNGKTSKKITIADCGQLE
Outline: (§2)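 Here, compound titrations (ten points, factor 3, from 30 μM final) act on nucleotide-bound K-Ras and Cyclophilin A, and ternary complex formation disrupts the RAF RBD interaction.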

KRAS G12D = KRAS G12D (Homo sapiens, UniProt P01116+P62937, G12D); assay: as above; assay type: biochemical; settings: read-out: KRAS G12D FRET data, IC50
KRAS G12D, sequence (P01116 1-169 isoform P01116-2 G12D limits assumed): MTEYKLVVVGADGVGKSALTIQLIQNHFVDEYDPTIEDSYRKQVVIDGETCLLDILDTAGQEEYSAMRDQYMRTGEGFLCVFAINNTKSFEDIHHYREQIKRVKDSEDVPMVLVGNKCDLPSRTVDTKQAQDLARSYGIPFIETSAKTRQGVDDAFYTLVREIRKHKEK
KRAS G12D, sequence (P62937 whole entry): as the sequence (P62937 whole entry) above
Outline: as §2

KRAS G12C = KRAS G12C (Homo sapiens, UniProt P01116+P62937, G12C); assay: as above; assay type: biochemical; settings: read-out: KRAS G12C FRET data, IC50
KRAS G12C, sequence (P01116 1-169 isoform P01116-2 G12C): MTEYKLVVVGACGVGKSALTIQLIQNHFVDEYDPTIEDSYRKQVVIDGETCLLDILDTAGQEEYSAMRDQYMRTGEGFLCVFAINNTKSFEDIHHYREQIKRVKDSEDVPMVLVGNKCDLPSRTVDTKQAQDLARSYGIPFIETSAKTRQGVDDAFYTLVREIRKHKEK
KRAS G12C, sequence (P62937 whole entry): as the sequence (P62937 whole entry) above
Outline: as §2

KRAS G12S = KRAS G12S (Homo sapiens, UniProt P01116+P62937, G12S); assay: as above; assay type: biochemical; settings: read-out: KRAS G12S FRET data, IC50
KRAS G12S, sequence (P01116 1-169 isoform P01116-2 G12S limits assumed): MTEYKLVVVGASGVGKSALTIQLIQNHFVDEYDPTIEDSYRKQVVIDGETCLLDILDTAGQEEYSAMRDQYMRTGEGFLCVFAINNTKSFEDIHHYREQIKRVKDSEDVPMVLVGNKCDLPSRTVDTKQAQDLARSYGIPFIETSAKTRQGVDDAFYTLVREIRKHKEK
KRAS G12S, sequence (P62937 whole entry): as the sequence (P62937 whole entry) above
Outline: as §2

KRAS G13C = KRAS G13C (Homo sapiens, UniProt P01116+P62937, G13C); assay: as above; assay type: biochemical; settings: read-out: KRAS G13C FRET data, IC50
KRAS G13C, sequence (P01116 1-169 isoform P01116-2 G13C): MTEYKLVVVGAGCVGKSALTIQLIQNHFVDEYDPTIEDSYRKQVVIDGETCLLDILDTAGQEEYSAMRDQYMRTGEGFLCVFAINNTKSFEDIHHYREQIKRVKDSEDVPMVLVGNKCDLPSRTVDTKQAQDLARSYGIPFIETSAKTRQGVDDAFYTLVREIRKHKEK
KRAS G13C, sequence (P62937 whole entry): as the sequence (P62937 whole entry) above
Outline: as §2

KRAS G12V = KRAS G12V (Homo sapiens, UniProt P01116+P62937, G12V); assay: as above; assay type: biochemical; settings: KRAS G12V; read-out: KRAS G12V FRET data IC50
KRAS G12V, sequence (P01116 1-169 isoform P01116-2 G12V limits assumed): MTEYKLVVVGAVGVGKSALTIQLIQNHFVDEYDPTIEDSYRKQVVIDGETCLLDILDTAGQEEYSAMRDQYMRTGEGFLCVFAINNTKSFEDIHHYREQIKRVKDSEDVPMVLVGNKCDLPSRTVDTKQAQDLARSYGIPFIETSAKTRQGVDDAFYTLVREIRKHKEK
KRAS G12V, sequence (P62937 whole entry): as the sequence (P62937 whole entry) above
Outline: as §2

NRAS G12C = NRAS G12C (Homo sapiens, UniProt P01111+P62937, G12C); assay: as above; assay type: biochemical; settings: NRAS G12C; read-out: NRAS G12C FRET data IC50
NRAS G12C, sequence (P01111 whole entry G12C): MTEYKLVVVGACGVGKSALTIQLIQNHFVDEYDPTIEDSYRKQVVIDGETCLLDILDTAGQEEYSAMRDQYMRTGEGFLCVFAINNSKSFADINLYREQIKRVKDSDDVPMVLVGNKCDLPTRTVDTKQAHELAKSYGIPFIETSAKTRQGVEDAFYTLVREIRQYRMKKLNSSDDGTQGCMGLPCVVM
NRAS G12C, sequence (P62937 whole entry): as the sequence (P62937 whole entry) above

KRAS WT = KRAS WT (Homo sapiens, UniProt P01116+P62937); assay: as above; assay type: biochemical; settings: KRAS WT; read-out: KRAS WT FRET data IC50
KRAS WT, sequence (P01116 1-169 isoform P01116-2 limits assumed): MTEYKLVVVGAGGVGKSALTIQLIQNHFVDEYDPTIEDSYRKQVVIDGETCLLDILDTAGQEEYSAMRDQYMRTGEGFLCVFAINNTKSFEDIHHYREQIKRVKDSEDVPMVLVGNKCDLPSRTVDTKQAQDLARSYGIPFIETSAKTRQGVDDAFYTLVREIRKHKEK
KRAS WT, sequence (P62937 whole entry): as the sequence (P62937 whole entry) above
Outline: as §2

| IC50 (NCI-H358 (K-Ras G12C)) | IC50 (KRAS G13D) | IC50 (KRAS G12D) | IC50 (KRAS G12C) | IC50 (KRAS G12S) | IC50 (KRAS G13C) | IC50 (KRAS G12V) | IC50 (NRAS G12C) | IC50 (KRAS WT) | SMILES | IC50 (Capan-1 (K-Ras G12V)) |
| --- | --- | --- | --- | --- | --- | --- | --- | --- | --- | --- |
| 1000 to 10000 nM | 10 to 100 nM | 10 to 100 nM | 10 to 100 nM | 10 to 100 nM | 10 to 100 nM | 100 to 1000 nM | 10 to 100 nM | 10 to 100 nM | CCn1c(-c2cccnc2[C@H](C)OC)c2c3cc(ccc31)-c1cc(O)cc(c1)C[C@H](NC(=O)[C@H](C(C)C)N(C)C(=O)C1CNC1)C(=O)N1CCC[C@H](N1)C(=O)OCC(C)(C)C2 [Example A125] | 1000 to 10000 nM |
| 100 to 1000 nM | 100 to 1000 nM | 100 to 1000 nM | 10 to 100 nM | 100 to 1000 nM | 10 to 100 nM | 100 to 1000 nM | 100 to 1000 nM | 10 to 100 nM | CCn1c(-c2cccnc2[C@H](C)OC)c2c3cc(ccc31)-c1cc(O)cc(c1)C[C@H](NC(=O)[C@H](C(C)C)N(C)C(=O)Cc1cc[nH]n1)C(=O)N1CCC[C@H](N1)C(=O)OCC(C)(C)C2 [Example A126] | 100 to 1000 nM |
| 1000 to 10000 nM | 10 to 100 nM | 10 to 100 nM | 10 to 100 nM | 10 to 100 nM | 10 to 100 nM | 100 to 1000 nM | 10 to 100 nM | 10 to 100 nM | CCn1c(-c2cccnc2[C@H](C)OC)c2c3cc(ccc31)-c1cc(O)cc(c1)C[C@H](NC(=O)[C@H](C(C)C)N(C)C(=O)[C@H]1CCN[C@H]1C)C(=O)N1CCC[C@H](N1)C(=O)OCC(C)(C)C2 [Example A127] | > 10000 nM |
| 1000 to 10000 nM | 10 to 100 nM | 10 to 100 nM | 10 to 100 nM | 10 to 100 nM | 10 to 100 nM | 100 to 1000 nM | 10 to 100 nM | 10 to 100 nM | CCn1c(-c2cccnc2[C@H](C)OC)c2c3cc(ccc31)-c1cc(O)cc(c1)C[C@H](NC(=O)[C@H](C(C)C)N(C)C(=O)[C@@H]1CCNC1)C(=O)N1CCC[C@H](N1)C(=O)OCC(C)(C)C2 [Example A129] | 1000 to 10000 nM |
| > 10000 nM | 10 to 100 nM | 10 to 100 nM | 100 to 1000 nM | 100 to 1000 nM | 10 to 100 nM | 1000 to 10000 nM | 100 to 1000 nM | 100 to 1000 nM | CCn1c(-c2cccnc2[C@H](C)OC)c2c3cc(ccc31)-c1cc(O)cc(c1)C[C@H](NC(=O)[C@H](C(C)C)N(C)C(=O)C1CC3CC1CN3)C(=O)N1CCC[C@H](N1)C(=O)OCC(C)(C)C2 (some centres unmarked) [Example A133] | > 10000 nM |
| 1000 to 10000 nM | 10 to 100 nM | 10 to 100 nM | 100 to 1000 nM | 100 to 1000 nM | 10 to 100 nM | 1000 to 10000 nM | 100 to 1000 nM | 100 to 1000 nM | CCn1c(-c2cccnc2[C@H](C)OC)c2c3cc(ccc31)-c1cc(O)cc(c1)C[C@H](NC(=O)[C@H](C(C)C)N(C)C(=O)[C@H]1CCCN[C@@H]1C)C(=O)N1CCC[C@H](N1)C(=O)OCC(C)(C)C2 [Example A134] | > 10000 nM |
| 100 to 1000 nM | 1000 to 10000 nM | 1000 to 10000 nM | 100 to 1000 nM | 1000 to 10000 nM | 1000 to 10000 nM | 100 to 1000 nM | 100 to 1000 nM | 100 to 1000 nM | CCn1c(-c2cccnc2[C@H](C)OC)c2c3cc(ccc31)-c1csc(n1)C[C@H](NC(=O)[C@H](C(C)C)N(C)C(=O)NC)C(=O)N1CCC[C@H](N1)C(=O)OCC(C)(C)C2 [Example A137] | 100 to 1000 nM |
| 10 to 100 nM | 1000 to 10000 nM | > 10000 nM | 1000 to 10000 nM | 1000 to 10000 nM | 1000 to 10000 nM | 1000 to 10000 nM | 1000 to 10000 nM | 1000 to 10000 nM | CCn1c(-c2cccnc2[C@H](C)OC)c2c3cc(ccc31)-c1csc(n1)C[C@H](NC(=O)[C@H](C1CCCC1)N(C)C(C)=O)C(=O)N1CCC[C@H](N1)C(=O)OCC(C)(C)C2 [Example A141] | 10 to 100 nM |
